Molecules are shown by their SMILES. In brackets after ≈: the same amount, converted by molar mass.

A word on the MIC: it is the lowest concentration found to suppress growth.

The subject of this assay is SAUR 9218. The experiment in a line: MIC Test Method, standard agar dilution. Format: cell-based. The conditions noted are these: agar dilution, Mueller Hinton agar, incubated overnight at 35° C.; lowest concentration that inhibits visible growth; read-out: SAUR 9218 MIC. The procedure:
The in vitro MiCs of test compounds were determined by a standard agar dilution method. A stock drug solution of each analog was prepared in the preferred solvent, usually DMSO:H2O (1:3). Serial 2-fold dilutions of each sample are made using 1.0 ml aliquots of sterile distil]ed water. To each 1.0 ml aliquot of drug was added 9 ml of molten Mueller Hinton agar medium. The drug-supplemented agar was mixed, poured into 15×100 mm petri dishes, and allowed to solidify and dry prior to inoculation.
Vials of each of the test organisms are maintained frozen in the vapor phase of a liquid nitrogen freezer. Test cultures are grown overnight at 35° C. on the medium appropriate for the organism. Colonies are harvested with a sterile swab, and cell suspensions are prepared in Trypticase Soy broth (TSB) to equal the turbidity of a 0.5 McFamland standard. A 1:20 dilution of each suspension was made in TSB. The plates containing the drug supplemented agar are inoculated with a 0.001 ml drop of the cell suspension using a Steers replicator, yielding approximately 10^4 to 10^5 cells per spot. The plates are incubated overnight at 35° C.
Following incubation the Minimum Inhibitory Concentration (MIC μg/ml), the lowest concentration of drug that inhibits visible growth of the organism, was read and recorded.
For orientation: In agar dilution, organisms are placed on agar that contains the substance at set levels.

In the case of `Cn1c(C(=O)Nc2cccc3cc(C(=O)Nc4ccc(C#N)cc4C(=O)O)[nH]c23)cc2ccccc21`, the MIC turned out to be 0.125 µg/mL (≈ 0.262 µM).

As for `N#Cc1ccc(NC(=O)c2ncc(-c3ccccc3C(F)(F)F)o2)c(C(=O)O)c1`, the minimal inhibitory concentration (MIC) worked out at 1 µg/mL (≈ 2.49 µM).

`CNC(=O)Nc1ccc2cc(C(=O)Nc3ccc(C#N)cc3C(=O)O)n(C)c2c1`: the MIC turned out to be 2 µg/mL (≈ 5.11 µM).

Consider `N#Cc1ccc(NC(=O)c2noc3cc(NS(=O)(=O)Cc4ccccc4)ccc23)c(C(=O)O)c1`, for which the MIC came out at 1 µg/mL (≈ 2.1 µM).

In the case of `Cl.Cn1c(C(=O)Nc2ccc(C#N)cc2C(=O)O)cc2cccc(OCC(O)CNc3ccccc3)c21` (stereo not shown), the MIC is 0.125 µg/mL.

Regarding `N#Cc1ccc(NC(=O)c2noc3ccccc23)c(C(=O)O)c1`, the MIC came to 0.125 µg/mL (≈ 0.407 µM).

As for `COCCn1c(C(=O)Nc2ccc(Cl)cc2C(=O)O)cc2ccccc21`, the MIC turned out to be 16 µg/mL (≈ 42.9 µM).

Regarding `O=C(Nc1ccc(Br)cc1C(=O)O)c1nnc(SCc2ccccc2)s1`, the MIC was 0.125 µg/mL (≈ 0.278 µM).

As to `Cc1nn(C)c(Cl)c1S(=O)(=O)Nc1cccc2cc(C(=O)Nc3ccc(C#N)cc3C(=O)O)n(C)c12`, the MIC was found to be 0.125 µg/mL (≈ 0.237 µM).

For the molecule `N#Cc1ccc(NC(=O)c2cc3cccc(NS(=O)(=O)c4ccc(OC(F)(F)F)cc4)c3[nH]2)c(C(=O)O)c1`, the minimal inhibitory concentration (MIC) amounted to 1 µg/mL (≈ 1.84 µM).

In the case of `CCC(=O)Nc1cccc2cc(C(=O)Nc3ccc(C#N)cc3C(=O)O)[nH]c12`, the MIC was determined as 2 µg/mL (≈ 5.31 µM).

For `COc1ccc(-c2cnc(C(=O)Nc3ccc(Br)cc3C(=O)O)o2)cc1`, the minimal inhibitory concentration (MIC) is 2 µg/mL (≈ 4.79 µM).

For `O=C(Nc1ccc(Br)cc1C(=O)O)c1ccc(-c2ccc([N+](=O)[O-])cc2)o1`, the minimum inhibitory concentration (MIC) worked out at 64 µg/mL (≈ 148 µM).

For `Cc1sc(C(=O)Nc2ccc(Br)cc2C(=O)O)cc1S(=O)(=O)Nc1ccc(F)c(Cl)c1`, the minimum inhibitory concentration (MIC) amounted to 8 µg/mL (≈ 14.6 µM).

Take `COC(=O)CC(=O)Nc1cccc2cc(C(=O)Nc3ccc(C#N)cc3C(=O)O)[nH]c12`: the MIC amounted to 4 µg/mL (≈ 9.52 µM).

`CN(c1ccc(Cl)cc1)S(=O)(=O)c1ccc(C(=O)Nc2ccc(Br)cc2C(=O)O)o1`: the minimum inhibitory concentration (MIC) is 16 µg/mL (≈ 31.1 µM).

For the molecule `CCCCCCOc1cnc(C(=O)Nc2ccc(C#N)cc2C(=O)O)cn1`, the MIC was 0.125 µg/mL (≈ 0.339 µM).

`N#Cc1ccc(NC(=O)c2ccc(SC3CCCCC3)nc2)c(C(=O)O)c1`: the MIC stood at 0.5 µg/mL (≈ 1.31 µM).

`N#Cc1ccc(NC(=O)c2cc(-c3ccccc3OC3CCC3)on2)c(C(=O)O)c1`: the MIC was 0.125 µg/mL (≈ 0.31 µM).

Turning to `CCCCCCSc1ccc(C(=O)Nc2ccc(Cl)cc2C(=O)O)cn1`, the MIC came to 0.125 µg/mL (≈ 0.318 µM).

As for `N#Cc1ccc(NC(=O)c2ccc(SCc3nsc(Cl)n3)nc2)c(C(=O)O)c1`, the minimal inhibitory concentration (MIC) is 0.25 µg/mL (≈ 0.579 µM).

In the case of `Cc1ccc(CC(=O)Nc2cccc3cc(C(=O)Nc4ccc(C#N)cc4C(=O)O)[nH]c23)cc1`, the MIC was determined as 0.5 µg/mL (≈ 1.11 µM).

As to `N#Cc1ccc(NC(=O)c2cc3cccc(NC(=O)Cc4ccc(F)cc4)c3[nH]2)c(C(=O)O)c1`, the MIC was 0.25 µg/mL (≈ 0.548 µM).

As for `CC(C)N(c1ccc2onc(C(=O)Nc3ccc(C#N)cc3C(=O)O)c2c1)S(C)(=O)=O`, the minimal inhibitory concentration (MIC) worked out at 0.125 µg/mL (≈ 0.283 µM).

Take `CCCCCSc1cnc(C(=O)Nc2ccc(Br)cc2C(=O)O)cn1`: the MIC was determined as 0.25 µg/mL (≈ 0.589 µM).

`CCCn1c(C(=O)Nc2ccc(Br)cc2C(=O)O)cc2ccccc21`: the minimum inhibitory concentration (MIC) is 4 µg/mL (≈ 9.97 µM).

In the case of `N#Cc1ccc(NC(=O)c2noc3ccc(-c4ccc(C(=O)N5CCOCC5)cc4)cc23)c(C(=O)O)c1`, the MIC turned out to be 0.25 µg/mL (≈ 0.504 µM).

Take `COCC(C)Oc1cccc2cc(C(=O)Nc3ccc(C#N)cc3C(=O)O)n(C)c12` (stereo not shown): the MIC was found to be 0.125 µg/mL (≈ 0.307 µM).

Take `O=C(Nc1ccc(Cl)cc1C(=O)O)c1cc(-c2ccccc2NS(=O)(=O)c2ccc(OC(F)(F)F)cc2)on1`: the MIC stood at 8 µg/mL (≈ 13.7 µM).

As to `N#Cc1ccc(NC(=O)c2cncc(-c3cnc4ccccc4c3)c2)c(C(=O)O)c1`, the MIC is more than 128 µg/mL.

For the molecule `N#Cc1ccc(NC(=O)c2cc3cccc(NC(=O)C4CCCCC4)c3[nH]2)c(C(=O)O)c1`, the minimal inhibitory concentration (MIC) stood at 2 µg/mL (≈ 4.65 µM).

Regarding `Cc1noc(C)c1-c1ccc2c(C(=O)Nc3ccc(C#N)cc3C(=O)O)noc2c1`, the minimal inhibitory concentration (MIC) is 0.125 µg/mL (≈ 0.311 µM).

Turning to `N#Cc1ccc(NC(=O)c2cc(-c3ccccc3OCCCOc3ccccc3)on2)c(C(=O)O)c1`, the minimal inhibitory concentration (MIC) came to 0.5 µg/mL (≈ 1.03 µM).

For `CCCCSc1cnc(C(=O)Nc2ccc(C#N)cc2C(=O)O)cn1`, the MIC was 0.125 µg/mL (≈ 0.351 µM).

With `CC(=O)Nc1ccc(S(=O)(=O)N(c2ccc3cc(C(=O)Nc4ccc(C#N)cc4C(=O)O)n(C)c3c2)S(=O)(=O)c2ccc(NC(C)=O)cc2)cc1`, the MIC stood at 1 µg/mL (≈ 1.37 µM).

In the case of `CCCCS(=O)(=O)N(c1ccc2cc(C(=O)Nc3ccc(C#N)cc3C(=O)O)n(C)c2c1)S(=O)(=O)CCCC`, the MIC came to 2 µg/mL (≈ 3.48 µM).

Take `Cn1c(C(=O)Nc2ccc(C#N)cc2C(=O)O)cc2ccc(OCc3ccccc3)cc21`: the MIC stood at 0.125 µg/mL (≈ 0.294 µM).

In the case of `O=C(Nc1ccc(Br)cc1C(=O)O)c1ncc(-c2ccccc2)o1`, the MIC was 1 µg/mL (≈ 2.58 µM).

As to `Cn1c(C(=O)Nc2ccc(C#N)cc2C(=O)O)cc2ccc(-c3ccccc3F)cc21`, the MIC worked out at 0.5 µg/mL (≈ 1.21 µM).

Regarding `Cc1sc(C(=O)Nc2ccc(C#N)cc2C(=O)O)cc1S(=O)(=O)N(CC(C)C)CC(C)C`, the MIC amounted to 32 µg/mL (≈ 67 µM).

Turning to `N#Cc1ccc(NC(=O)c2cc3ccccc3n2CC2CCCCC2)c(C(=O)O)c1`, the MIC came to 1 µg/mL (≈ 2.49 µM).

Turning to `CCS(=O)(=O)Nc1cccc2cc(C(=O)Nc3ccc(C#N)cc3C(=O)O)n(C)c12`, the MIC came to 0.5 µg/mL (≈ 1.17 µM).

In the case of `CCCCCCSc1ccc(C(=O)Nc2ccc(C#N)cc2C(=O)O)cn1`, the MIC stood at 0.125 µg/mL (≈ 0.326 µM).

Consider `O=C(Nc1ccc(Br)cc1C(=O)O)c1ccc[nH]1`, for which the MIC is more than 128 µg/mL.

As for `O=C(O)c1cc(Br)ccc1NC(=O)c1nc(N2CCOCC2)ncc1Cl`, the minimal inhibitory concentration (MIC) is more than 128 µg/mL.

As for `COc1cccc2[nH]c(C(=O)Nc3ccc(C#N)cc3C(=O)O)cc12`, the minimum inhibitory concentration (MIC) amounted to 0.25 µg/mL (≈ 0.746 µM).

Take `Cc1cc(NS(=O)(=O)c2ccc(-c3cc(C(=O)Nc4ccc(Br)cc4C(=O)O)no3)cc2)no1`: the minimum inhibitory concentration (MIC) was found to be 32 µg/mL (≈ 58.5 µM).

On to `C=CCn1c(C(=O)Nc2ccc(C#N)cc2C(=O)O)cc2ccccc21`, for which the MIC came out at 1 µg/mL (≈ 2.9 µM).

With `Cn1c(C(=O)Nc2ccc(C#N)cc2C(=O)O)cc2cccc(NC(=O)NCC(O)CO)c21` (stereo not shown), the MIC came to 4 µg/mL (≈ 8.86 µM).

Turning to `CCOCCOCCOc1ccccc1-c1cc(C(=O)Nc2ccc(C#N)cc2C(=O)O)no1`, the minimal inhibitory concentration (MIC) amounted to 0.5 µg/mL (≈ 1.07 µM).

As to `CCC(C)Sc1cnc(C(=O)Nc2ccc(Br)cc2C(=O)O)cn1` (stereo not shown), the MIC was 0.5 µg/mL (≈ 1.22 µM).

With `Cn1c(C(=O)Nc2ccc(C#N)cc2C(=O)O)cc2cccc(NC(=O)c3cccc(S(=O)(=O)N4CCOCC4)c3)c21`, the MIC came to 2 µg/mL (≈ 3.4 µM).

For the molecule `Cc1c(S(=O)(=O)N2CC3CC2CN3Cc2ccccc2)csc1C(=O)Nc1ccc(Br)cc1C(=O)O` (stereo not shown), the minimal inhibitory concentration (MIC) is more than 128 µg/mL.

`N#Cc1ccc(NC(=O)c2cc3cccc4c3n2CC/C4=N\O)c(C(=O)O)c1`: the minimum inhibitory concentration (MIC) was 0.25 µg/mL (≈ 0.668 µM).

As for `N#Cc1ccc(NC(=O)c2cc3cccc(NC(=O)Cc4ccc(-c5ccccc5)cc4)c3[nH]2)c(C(=O)O)c1`, the MIC was 0.5 µg/mL (≈ 0.972 µM).

Turning to `CC(C)=CCOCC(O)COc1cccc2cc(C(=O)Nc3ccc(C#N)cc3C(=O)O)n(C)c12` (stereo not shown), the minimum inhibitory concentration (MIC) is 0.5 µg/mL (≈ 1.05 µM).

As to `Cc1sc(C(=O)Nc2ccc(C#N)cc2C(=O)O)cc1S(=O)(=O)N1CCN(c2cccc(C(F)(F)F)c2)CC1`, the minimum inhibitory concentration (MIC) was 32 µg/mL (≈ 55.3 µM).

For `O=C(Nc1ccc(Br)cc1C(=O)O)c1csc(S(=O)(=O)N2CCN(c3cccc(C(F)(F)F)c3)CC2)c1`, the MIC was found to be 16 µg/mL (≈ 25.9 µM).

`CS(=O)(=O)c1ncc(N2CCOCC2)c(C(=O)Nc2ccc(Br)cc2C(=O)O)n1`: the MIC is more than 128 µg/mL.

Turning to `Cc1c(S(=O)(=O)Nc2ccc(N3CCOCC3)cc2)csc1C(=O)Nc1ccc(Br)cc1C(=O)O`, the minimal inhibitory concentration (MIC) was 64 µg/mL (≈ 110 µM).

With `O=C(Nc1ccc(Br)cc1C(=O)O)C1=NS(=O)(=O)c2ccccc21`, the minimal inhibitory concentration (MIC) was more than 128 µg/mL.
